Reference: patent US6897200B1, “Oligonucleotide delivery systems for camptothecins” (University of Kentucky Research Foundation, priority 1998, dated 2005)

Key:
[1] = Lactone ring hydrolysis in PBS in the absence of DNA (reversed-phase HPLC); details: for % Lactose at Equilibrium: PBS buffer, pH 7.4, 10 uM drug; for percent lactone at equilibrium: absence of DNA, 10 μM, incubated 3 hours, PBS pH 7.4, room temperature
[2] = tested on: duplex DNA oligonucleotides (dG-dC)15 or (dA-dT)15; assay: UV absorption spectra of drug lactone with duplex DNA oligonucleotides; details: for DNA sequence preference (UV and HPLC data): (dG-dC)15 versus (dA-dT)15; for UV spectral change in the presence of DNA: PBS pH 5, 10 μM drug, (dG-dC)15 16 mM base or (dA-dT)15 24 mM base
[3] = tested on: dsDNA oligonucleotide (dG-dC)15; assay: Lactone ring hydrolysis in PBS in the presence of (dG-dC)15 (reversed-phase HPLC); details: for % Lactose at Equilibrium: pH 7.4, 10 uM drug; for Lactone levels following three hours of incubation: (dG-dC)15 ~30 mM base, PBS pH 7.4, room temperature
[4] = tested on: single-strand DNA (ssDNA) (dT)30; assay: Lactone stability in the presence of single-strand DNA (HPLC); assay type: physicochemical; details: ~33 mM base (dT)30; dsDNA 10- to 100-fold more dilute gives approximately equal stabilization
Excerpt: Note how the presence of DNA markedly stabilizes the biologically-active form of the camptothecins drugs. […] . But it is clear from our work that camptothecin drugs can interact with ssDNA as well as RNA (see FIGS. 4 through 7) and these interactions stabilize the biologically-active lactone forms of these agents.

[5] = tested on: dsDNA oligonucleotide d(CGTACG); assay: NMR titration / 2D-NOESY of drug with d(CGTACG); details: drug:DNA ratios of 1:1, 2:1 and 3:1
[6] = tested on: dsDNA oligonucleotide (dA-dT)15; assay: Lactone ring hydrolysis in PBS in the presence of (dA-dT)15 (reversed-phase HPLC); details: for % Lactose at Equilibrium: pH 7.4, 10 uM drug; for Lactone levels following three hours of incubation: (dA-dT)15 ~30 mM base, PBS pH 7.4, room temperature
[7] = tested on: dsDNA; assay: Relactonization of carboxylate forms in dsDNA solutions (HPLC); details: ~30 mM base dsDNA in PBS, room temperature, after 30 hrs
[8] = tested on: double-stranded DNA (dsDNA); assay: Fluorescence emission spectra of SN-38 lactone with DNA; assay type: binding; details: SN-38 lactone 1 μM, spectra within 2 min
Description: FIG. 8 depicts the marked shifting of the fluorescence emission spectra of SN-38 lactone (1 μM final concentration) in the presence of double-stranded DNA (dsDNA). SN38 contains a 10-hydroxy-nctionality which results in the molecule having a fluorescence emission which is highly sensitive to the presence of water in the surrounding microenvironment. […] Note how the agent fluoresces in the 410 nm to 460 nm region when water is not present, but fluoresces at 520 to 530 nm when water is present. […] The fluorophore was directly added to the DNA solution and the spectra recorded immediately (within 2 min.) prior to any significant conversion of the agent to carboxylate form.
To gain mechanistic insight into why the stabilization occurs, fluorescence spectroscopic scans of SN-38 lactone in the presence and absence of DNA were recorded.
Our results thus provide the first evidence that duplex DNA devoid of TopoI may play a functional role in the biological activities of the camptothecin drugs through the promotion of active lactone levels within the cell nucleus. […] The DNA-associated drugs are likely to be in their active lactone forms and ready for the subsequent drug-DNA-enzyme complex formation.

[9] = tested on: RNA (total RNA from yeast); assay: Stability of topotecan lactone in the presence of RNA (reversed-phase HPLC); assay type: physicochemical; details: 1 μM topotecan
Description: FIG. 4 depicts the stability of topotecan in the presence of various concentrations of RNA at 22° C. In these experiments, topotecan (at a final concentration of 1 μM) was incubated in PBS, pH 7.4 in the presence of various concentrations of RNA (total RNA from yeast) for 30 min at 22° C. and analyzed for the fraction of lactone present by reversed-phase HPLC. […] As an example, in the presence of 7.5 mg/ml of RNA there exists a 10% greater amount of the lactone form than found in the absence of RNA.
FIG. 5. Stability of topotecan in the presence of various concentrations of RNA at 37° C. Topotecan (1 μM final concentration) was incubated in PBS, pH 7.4 in the presence of various concentrations of RNA (total RNA from yeast) for 30 min at 37° C. and analyzed for the fraction of lactone present by reversed-phase HPLC. At a RNA concentration of 7.5 mg/ml, 12% more of the lactone form of topotecan is present.
FIG. 6 represents a comparison of the stability of topotecan in the presence and absence of RNA at 22° C. Topotecan (1 μM final concentration) was incubated in PBS, pH 7.4 either alone (filled circles) or in the presence of 10 mg/ml of RNA (open circles) at 22° C. and analyzed for the fraction of lactone present at different times by reversed-phase HPLC.
FIG. 7 represents a comparison of the stability of topotecan in the presence and absence of RNA at 37° C. Topotecan (1 μM final concentration) was incubated in PBS, pH 7.4 either in the absence (filled circles) or in the presence of 10 mg/ml of RNA (open circles) at 37° C. and analyzed for the fraction of lactone present at different times by reversed-phase HPLC.

| SMILES | % Lactose at Equilibrium ([1]; 22 °C) [%] | % Lactose at Equilibrium ([1]; 37 °C) [%] | percent lactone at equilibrium [1] [%] | DNA sequence preference (UV and HPLC data) [2] | UV spectral change in the presence of DNA [2] | % Lactose at Equilibrium ([3]; (dG-dC)15, 22 °C) [%] | % Lactose at Equilibrium ([3]; (dG-dC)15, 37 °C) [%] | Lactone levels following three hours of incubation [3] | effect of ssDNA on lactone stabilization (versus dsDNA) [4] | drug binding to DNA (2D-NOESY) [5] | % Lactose at Equilibrium ([6]; (dA-dT)15, 22 °C) [%] | % Lactose at Equilibrium ([6]; (dA-dT)15, 37 °C) [%] | Lactone levels following three hours of incubation [6] [%] | active lactone level after relactonization of pure carboxylate form [7] [%] | direct binding of lactone form to DNA (fluorescence spectral shift) [8] | greater amount of the lactone form than in the absence of RNA ([9]; 7.5 mg/ml RNA, PBS pH 7.4, 30 min, 22 °C) [%] | more of the lactone form present than without RNA ([9]; 7.5 mg/ml RNA, PBS pH 7.4, 30 min, 37 °C) [%] | more of the lactone form present than without RNA ([9]; 10 mg/ml RNA, PBS pH 7.4, after 3 hrs, 22 °C) [%] | more of the lactone form present than without RNA ([9]; 10 mg/ml RNA, PBS pH 7.4, after 3 hrs, 37 °C) [%] |
| --- | --- | --- | --- | --- | --- | --- | --- | --- | --- | --- | --- | --- | --- | --- | --- | --- | --- | --- | --- |
| CCc1c2c(nc3ccc(OC(=O)N4CCC(N5CCCCC5)CC4)cc13)-c1cc3c(c(=O)n1C2)COC(=O)[C@]3(O)CC [CPT-11] | 17 ± 1 | 8 ± 2 | 24 | no signs of any sequence preference | substantial hypochromic and red spectral shift | −50 | 30 ± 2 | 95% | significantly diminished effects on stabilizing | clearly consistent with drug binding to DNA | −50 | 29 ± 2 | 95 | ~30 | – | – | – | – | – |
| CCc1c2c(nc3ccc(O)cc13)-c1cc3c(c(=O)n1C2)COC(=O)[C@]3(O)CC [SN-38, 7-ethyl-10-hydroxycamptothecin] | – | – | – | – | – | – | – | – | – | – | – | – | – | – | binds the DNA | – | – | – | – |
| CC[C@@]1(O)C(=O)OCc2c1cc1n(c2=O)Cc2cc3c(CN(C)C)c(O)ccc3nc2-1 [TPT, topotecan] | 15 ± 1 | 10 ± 1 | 12 | sequence preference of (dG-dC)15 over (dA-dT)15 | substantial hypochromic and red spectral shift | −50 | 26 ± 2 | 95% | significantly diminished effects on stabilizing | clearly consistent with drug binding to DNA | −50 | 19 ± 2 | 78 | ~30 | – | 10 | 12 | 25 | 15 |
| CC[C@@]1(O)C(=O)OCc2c1cc1n(c2=O)Cc2cc3ccccc3nc2-1 [camptothecin] | – | – | – | – | – | – | – | above 80% | – | – | – | – | – | – | – | – | – | – | – |
